Results on two compounds are retold here after patent publication US20200247808A1, “Heterocyclic Tec-Family Kinase Inhibitors” (GB005, Inc., priority 2015, published 2020).

One data set in a line: in vitro. Particulars: human, liver microsomes. On the technique in general: Liver microsomes are a subcellular fraction often used to study metabolism.
The subject of data set [1] is immune complex mediated vasculitis. As to the kind of experiment: Mouse Arthus (immune complex mediated acute vasculitis). Type of data set: in vivo, mouse (Balb/c). Conditions: mice; for Suppression of immune complex mediated vasculitis: oral gavage 10 mg/kg, 1 h pre-treatment, Evan's blue extravasation at 4 h. As to the method:
Formation and reaction to immune complexes is characteristic of antibody mediated autoimmune and inflammatory disease. BTK is important in signaling pathways downstream of Fc receptor stimulation which can be modeled by immune complex mediated acute vasculitis. Mouse studies were conducted as reported in Braselmann S, et al. J Pharmacol Exp Ther, 2006, 319:998-1008.
In summary, female Balb/c mice (6-7 weeks on arrival) were habituated to the animal facility for at least 4 days. On the day of the experiment, animals were pre-treated (t=minus 1 h) with compound or vehicle alone by gavage (PO). At t=0, animals were injected intravenously (IV; 0.1 mL/mouse) with saline containing chicken ovalbumin and Evan's blue (10 mg/mL of each). Ten minutes later (t=10 min), animals were anesthesized with isoflurane, the dorsal surface was shaved and rabbit anti-chicken ovalbumin antibody was then injected intradermally at one site on the right side of the animal (25 μg in 30 μL). The same amount of isotype control antibody was then injected on the left side.
The animals were then returned to their home cage and skin punches (8 mm) were collected from each injection site four hours later. The samples were placed in 1 mL formamide overnight at 80° C. (1 skin biopsy per 1 mL formamide in a glass tube). The amount of Evan's blue in the formamide solution was then assessed by spectrophotometry (630 nm) as a measure of serum extravasation into the dermis.

The target in the next data set is EGFR (Homo sapiens, UniProt P00533). Briefly: EGFR kinase inhibition, KinaseProfiler radiometric protein kinase assay (Eurofins). Conditions: 40 min room temperature. On the set-up: purchased Eurofins Pharma Discovery Services UK Limited (contract assay, KinaseProfiler). Type of data set: biochemical. As to the method: (§1) In vitro potency of selected compound was defined against human BTK, EGFR, and ErbB2 kinases using Kinase Profiler radiometric protein kinase assays performed at Eurofins Pharma Discovery Services UK Limited.
Each kinase is diluted in buffer and all compounds were prepared to 50x final assay concentration in 100% DMSO. This working stock of the compound was added to the assay well as the first component in the reaction, followed by the remaining components as detailed in the assay protocol listed above. The reaction was initiated by the addition of the MgATP mix. […] (specific activity approx. 500 cpm/pmol, concentration as required) and variable test article concentrations. […] The reaction was stopped by the addition of 3% phosphoric acid solution. 10 μL of the reaction is then spotted onto a P30 filtermat and washed three times for 5 minutes in 75 mM phosphoric acid and once in methanol prior to drying and scintillation counting. In addition positive control wells contain all components of the reaction, except the compound of interest; however, DMSO (at a final concentration of 2%) were included in these wells to control for solvent effects as well as blank wells contain all components of the reaction, with a reference inhibitor replacing the compound of interest. This abolishes kinase activity and establishes the base-line (0% kinase activity remaining). […]

The next data set deals with T1, human ErbB2 (Homo sapiens, UniProt P04626).
T1 construct: purchased Eurofins Pharma Discovery Services UK Limited (contract assay, KinaseProfiler)
Briefly: ErbB2 kinase inhibition, KinaseProfiler radiometric protein kinase assay (Eurofins). Particulars: 40 min room temperature. Format: biochemical. On the procedure:
as §1
Each kinase is diluted in buffer and all compounds were prepared to 50x final assay concentration in 100% DMSO. This working stock of the compound was added to the assay well as the first component in the reaction, followed by the remaining components as detailed in the assay protocol listed above. The reaction was initiated by the addition of the MgATP mix. […] (specific activity approx. 500 cpm/pmol, concentration as required) and variable test article concentrations. […] The reaction was stopped by the addition of 3% phosphoric acid solution. 10 μL of the reaction is then spotted onto a P30 filtermat and washed three times for 5 minutes in 75 mM phosphoric acid and once in methanol prior to drying and scintillation counting. […] This abolishes kinase activity and establishes the base-line (0% kinase activity remaining). The potency of each compound was reported by estimating the EC50.

Data set [2] concerns TMD-8 xenograft B-cell lymphoma. Briefly: Antitumor activity study, TMD-8 xenograft. Type of data set: in vivo, mouse (Scid). Conditions: Scid mice, once daily oral gavage from d21. As to the method: Female C.B-17/IcrHsd-PrkdcsidLystbg-J mice (Scid mice; Harlan, 6-8 wk on delivery) were used for these studies. The mice were housed 4 per cage in a ventilated rack in a room under controlled conditions of temperature (20-25° C.) and humidity (40-70%), with a 12 h dark/light cycle. The animals were fed ad libitum with irradiated rodent diet (Harlan) and received autoclaved tap water. The cage, bedding and enrichment materials inside the home cage were autoclaved prior to use and all cage and animal manipulations were carried out inside a sterile laminar flow hood. Animals were acclimated for 1 week prior to cell injection.
TMD-8 human activated B cell diffuse large B cell lymphoma cells were grown in HyClone RPMI supplemented with 10% FBS (Fisher)/1% Penicillin/Streptomycin (HyClone) at 37° C., 5% CO2 and then prepared for injection. […]
When the mean tumor volume reached 200-300 mm^3 (d21) mice were randomized into groups of 10 based on tumor size and treatment was initiated. […] General condition and BW of all mice was assessed daily and tumor measurements collected twice per week (Mon and Thur). […]
The long (a) and short (b) axis of tumors were measured with electronic calipers (Mitutoyo) and tumor volume (mm^3) was calculated (a*b^2/2) and temporal changes in tumor volume and body weight were assessed day 21 (d21) to […].

A further data set deals with splenocytes. As to the kind of experiment: Splenic cell proliferation assay (anti-IgM stimulated, Cell Titer-Glo). Type of data set: cell-based, mouse (CD1). Conditions: Splenocyte; mouse splenocytes, 2.5 μg/ml anti-IgM F(ab')2, 72 h; read-out: Spleen cell EC50. As to the method: Proliferation of splenocytes in response to anti-IgM can be blocked by inhibition of BTK. Splenocytes were obtained from 6 week old male CD1 mice (Charles River Laboratories Inc.). Mouse spleens were manually disrupted in PBS and filtered using a 70um cell strainer followed by ammonium chloride red blood cell lysis. Cells were washed, resuspended in Splenocyte Medium (HyClone RPMI supplemented with 10% heat-inactivated FBS, 0.5X non-essential amino acids, 10 mM HEPES, 50 μM beta mercaptoethanol) and incubated at 37° C., 5% CO2 for 2h to remove adherent cells. Suspension cells were seeded in 96 well plates at 50,000 cells per well and incubated at 37° C., 5% CO2 for 1h. Splenocytes were pre-treated in triplicate with 10,000 nM curves of Formula 1 compounds for 1h, followed by stimulation of cell proliferation with 2.5 μg/ml anti-IgM
F(ab′)2 (Jackson ImmunoResearch) for 72 h. Cell proliferation was measured by Cell Titer-Glo Luminescent Assay (Promega). EC50 values (50% proliferation in the presence of compound as compared to vehicle treated controls) were calculated from dose response compound curves using GraphPad Prism Software.
(In general: ATP-based viability assays read luminescence as a measure of living cells.)

Entries after “also recorded” stand apart in the source; their conditions may differ.

EGFR, sequence (P00533 25-1210): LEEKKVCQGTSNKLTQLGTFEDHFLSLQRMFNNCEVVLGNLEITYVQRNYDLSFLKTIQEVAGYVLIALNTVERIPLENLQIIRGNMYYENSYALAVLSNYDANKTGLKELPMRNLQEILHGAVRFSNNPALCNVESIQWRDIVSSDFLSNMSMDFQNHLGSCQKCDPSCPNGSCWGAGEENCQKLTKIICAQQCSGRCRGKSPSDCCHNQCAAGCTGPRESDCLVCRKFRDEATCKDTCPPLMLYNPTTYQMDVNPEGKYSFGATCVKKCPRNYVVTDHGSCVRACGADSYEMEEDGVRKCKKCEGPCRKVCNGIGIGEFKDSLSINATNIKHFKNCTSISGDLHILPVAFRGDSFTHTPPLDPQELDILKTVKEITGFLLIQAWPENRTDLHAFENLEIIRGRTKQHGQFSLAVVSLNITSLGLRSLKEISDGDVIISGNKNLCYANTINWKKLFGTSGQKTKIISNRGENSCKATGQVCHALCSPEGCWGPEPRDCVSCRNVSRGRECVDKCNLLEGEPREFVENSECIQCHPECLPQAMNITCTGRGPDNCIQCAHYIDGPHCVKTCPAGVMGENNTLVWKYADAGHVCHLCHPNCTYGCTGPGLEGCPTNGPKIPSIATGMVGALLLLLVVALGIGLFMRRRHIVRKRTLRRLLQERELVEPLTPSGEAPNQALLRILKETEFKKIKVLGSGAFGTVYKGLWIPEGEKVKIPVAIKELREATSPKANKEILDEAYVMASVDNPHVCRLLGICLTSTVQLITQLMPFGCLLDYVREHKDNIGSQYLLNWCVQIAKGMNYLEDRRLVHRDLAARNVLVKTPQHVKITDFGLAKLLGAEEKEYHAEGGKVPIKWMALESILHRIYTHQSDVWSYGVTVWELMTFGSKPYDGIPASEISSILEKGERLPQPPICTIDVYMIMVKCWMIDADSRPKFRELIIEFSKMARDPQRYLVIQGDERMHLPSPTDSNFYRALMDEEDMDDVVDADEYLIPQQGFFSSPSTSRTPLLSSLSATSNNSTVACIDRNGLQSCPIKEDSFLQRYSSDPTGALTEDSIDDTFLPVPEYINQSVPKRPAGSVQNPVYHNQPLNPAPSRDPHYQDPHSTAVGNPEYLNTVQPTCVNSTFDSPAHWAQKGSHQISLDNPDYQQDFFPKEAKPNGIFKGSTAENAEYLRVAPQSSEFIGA
T1 sequence (P04626 23-1255): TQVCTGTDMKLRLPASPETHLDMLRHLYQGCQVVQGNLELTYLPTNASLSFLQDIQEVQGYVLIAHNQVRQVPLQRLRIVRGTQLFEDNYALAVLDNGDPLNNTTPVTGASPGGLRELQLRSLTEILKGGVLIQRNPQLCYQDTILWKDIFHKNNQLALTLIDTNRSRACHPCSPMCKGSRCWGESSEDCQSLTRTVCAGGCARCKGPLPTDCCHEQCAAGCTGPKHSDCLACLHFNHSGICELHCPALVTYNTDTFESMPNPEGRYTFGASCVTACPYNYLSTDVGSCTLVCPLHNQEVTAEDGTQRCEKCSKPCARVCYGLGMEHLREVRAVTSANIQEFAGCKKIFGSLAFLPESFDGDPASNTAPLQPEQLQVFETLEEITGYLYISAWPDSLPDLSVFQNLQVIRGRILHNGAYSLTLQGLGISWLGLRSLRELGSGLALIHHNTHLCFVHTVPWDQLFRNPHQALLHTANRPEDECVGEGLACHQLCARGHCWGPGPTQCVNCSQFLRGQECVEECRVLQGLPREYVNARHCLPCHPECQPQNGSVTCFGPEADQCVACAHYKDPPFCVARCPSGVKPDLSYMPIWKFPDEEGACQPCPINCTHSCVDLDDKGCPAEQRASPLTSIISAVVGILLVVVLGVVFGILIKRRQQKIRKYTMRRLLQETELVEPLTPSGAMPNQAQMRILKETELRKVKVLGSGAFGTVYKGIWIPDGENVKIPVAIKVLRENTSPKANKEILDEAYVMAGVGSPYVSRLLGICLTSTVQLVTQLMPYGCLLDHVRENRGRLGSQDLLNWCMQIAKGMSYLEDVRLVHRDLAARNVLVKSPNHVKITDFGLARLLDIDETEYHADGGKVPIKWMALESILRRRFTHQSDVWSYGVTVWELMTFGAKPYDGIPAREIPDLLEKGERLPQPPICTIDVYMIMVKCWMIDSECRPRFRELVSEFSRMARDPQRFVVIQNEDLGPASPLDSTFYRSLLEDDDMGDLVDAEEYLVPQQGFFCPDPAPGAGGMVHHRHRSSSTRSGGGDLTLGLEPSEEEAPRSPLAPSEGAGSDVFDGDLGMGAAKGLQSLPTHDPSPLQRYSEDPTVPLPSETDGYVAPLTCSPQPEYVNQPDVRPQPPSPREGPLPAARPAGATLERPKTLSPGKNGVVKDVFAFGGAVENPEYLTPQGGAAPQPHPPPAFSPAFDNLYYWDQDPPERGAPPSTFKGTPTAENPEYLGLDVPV
Experimental for in vitro: Intrinsic liver microsomal stability was determined using cryopreserved human liver microsomes. […] Following centrifugation 100 μL of the supernatant was transferred to a 96-well plate and analyzed by LC-MS/MS using test-article specific methods. Controls included absence of microsomes or co-factors or use of heat-denatured microsomes. Intrinsic clearance was calculated using the formula: (In(% Time 0/% Time 1)/T1−T0)×Volume of incubation/protein in the incubation.

By microsomal CLint is commonly meant the capacity of the preparation to metabolise the compound, expressed as a volume cleared per time. A word on the IC50: it is the midpoint of a concentration-inhibition curve. In general, EC50 refers to the concentration that produces a half-maximal response. `CC#CC(=O)N[C@H]1C[C@@H](n2nc(-c3ccc(Oc4ccccc4)cc3)c3c(N)ncnc32)C1` [Compound 1] returned a microsomal CLint at 1 μM in the data set “in vitro” of 34.9 µL/min/mg. Moreover, the “Effect on immune complex-mediated vasculitis (FIG. 3, in words)” value in data set [1] was “inhibit immune complex-mediated vasculitis”. In addition, in data set [1], the “Suppression of immune complex mediated vasculitis” value is 87%. The IC50 against EGFR and against human ErbB2 was greater than 1000 nM each time. Moreover, in data set [2], the “Effect on TMD-8 xenograft tumor growth” value is on record as “reduce growth of TMD-8 xenograft B-cell lymphoma; also recorded: reduce tumor growth”. For the same compound, in the data set on splenocytes, the EC50 is 0.2 nM.
On to `C=CC(=O)N[C@H]1C[C@@H](n2nc(-c3ccc(Oc4ccccc4)cc3)c3c(N)ncnc32)C1` [Compound 2], for which, in “in vitro”, the microsomal CLint at 1 μM stood at 15.6 µL/min/mg. In data set [1], the “Effect on immune complex-mediated vasculitis (FIG. 3, in words)” value was “inhibit immune complex-mediated vasculitis” and the “Suppression of immune complex mediated vasculitis” value is recorded as 94%. Besides, the IC50 against EGFR was greater than 1000 nM. This compound also registered a 50% inhibitory concentration (IC50) on human ErbB2 of 97 nM. The “Effect on TMD-8 xenograft tumor growth” value in data set [2] is reported as “reduce growth of TMD-8 xenograft B-cell lymphoma; also recorded: reduce tumor growth”. For the same compound, in the data set on splenocytes, the EC50 stood at 0.3 nM.
